Data taken from patent publication US6191273A, “Substituted cyclic compounds and mixtures comprising same” (Isis Pharmaceuticals, Inc., priority 1998, dated 2001).

What was measured:
[1] = tested on: S. pyogenes [American Type Culture Collection (ATCC) # 14289]; assay: Streptococcus pyogenes bacterial growth assay (Tier I antimicrobial); type: cell-based; details: read-out: inhibition in the S. pyogenes procedure
Description: S. pyogenes [American Type Culture Collection (ATCC) # 14289] is used in this bacterial growth assay. To initiate the exponential phase of bacterial growth prior to the assay, a sample of bacteria is grown for 6 hours in Todd Hewitt Broth (Difco 0492-17-6) at 37° C. then re-inoculated into fresh media and grown overnight at 37° C. The bacterial cells are collected by centrifugation for 10 minutes at 3200 rpm, diluted and absorbance read at 595 nm. Bacteria diluted in 2× Todd-Hewitt Broth (75 μL) are added to the compound mixtures (75 μL) for a total volume of 150 μL. The assays are performed in 96-well microplates with approximately 1×10^4 colony forming units (CFU) per well. The plates are incubated at 37° C. and growth monitored over a 24 hour period by measuring the optical density at 595 nm using a BioRad model 3550 UV microplate reader. The percentage of growth relative to a well containing no test compound or library is determined. Ampicillin and tetracycline antibiotic controls are concurrently tested in each screening assay.
Compounds are assayed in duplicate at a single dose. Compounds which show inhibitory activity are re-tested in duplicate at multiple doses to determine minimum inhibitory concentration (MIC).

[2] = tested on: E. coli imp-; assay: E. coli imp- bacterial growth assay (Tier I antimicrobial); type: cell-based; details: Escherichia coli, read-out: inhibition in the E. coli procedure
Description: The strain E. coli imp- obtained from Spencer Benson (Sampson, B. A., Misra, R. & Benson, S. A., Genetics, 1989, 122, 491-501, Identification and characterization of a new gene of Escherichia coli K-12 involved in outer membrane permeability) is used in this bacterial growth assay. To initiate the exponential phase of bacterial growth prior to the assay, a sample of bacteria is grown for 6 hours in Mueller Hinton II Broth (BBL 12322) at 37° C. then re-inoculated into fresh media and grown overnight at 37° C. The bacterial cells are collected by centrifugation for 10 minutes at 3200 rpm, diluted and absorbance read at 595 nm. Bacteria diluted in 2× Mueller Hinton II Broth (75 μL) are added to the compound mixtures (75μL) for a total volume of 150 μL. The assays are performed in 96-well microplates with approximately 1×10^4 colony forming units (CFU) per well. The plates are incubated at 37° C. and growth monitored over a 24 hour period by measuring the optical density at 595 nm using a BioRad model 3550 UV microplate reader. The percentage of growth relative to a well containing no compound is determined. Ampicillin and tetracycline antibiotic controls are concurrently tested in each screening assay.
Compounds are assayed in duplicate at a single dose. […]

Compound | inhibition at 100 µM [1] [%] | inhibition at 100 µM [2] [%]
NC(=O)CN(Cc1cccc(C(F)(F)F)c1)Cc1cccc(CN(CCNCCCO)Cc2cccc(C(F)(F)F)c2)n1 [Example 66] | 95 | 87
N=C(N)NCc1cccc(CN(CCNCCCO)Cc2cccc(C(F)(F)F)c2)n1 [Example 71] | 95 | 
